In ChEMBL document CHEMBL1201862, “PubChem BioAssay data set” (2004):
Active and inactive are the calls of the source. Rule as the data show it, for most assays here: actives have a measured EC50 and inactives only a lower limit.

What was measured:
[1] = viability of uninfected HEp-2 cells – cell-based, HTS, cytotoxicity control for RSV inhibitor project, dose response (AID 2410); format: functional; conditions: human respiratory syncytial virus
[2] = target: Heat shock protein HSP 90-alpha (Homo sapiens, UniProt P07900); format: functional, organism-based
Streptococcus = test: GAS UMAA2166 growth inhibition – luminescence, BacTiterGlo, counter-screen for streptokinase expression inhibitor project, dose response (AID 1915); format: functional, organism-based;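 also: potency for reduction of bacterial viability or growth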
[3] = target: T1, Serine/threonine-protein phosphatase (Candida dubliniensis (strain CD36 / CBS 7987 / NCPF 3949 / NRRLY-17841) (Yeast), UniProt B9W6M3); test: blockers of CaCl2-induced CDRE-lacZ signaling – S. cerevisiae, luminescence, secondary, dose response (AID 2388); format: functional, cell-based;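 also: yeast reporter cells carrying a calcineurin-responsive lacZ construct stimulated with calcium chloride; luminescent beta-galactosidase reporter signal in whole cells rather than isolated phosphatase activity; potency for inhibition where a drop in reporter signal means calcineurin blockade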
T1 sequence (B9W6M3 whole entry): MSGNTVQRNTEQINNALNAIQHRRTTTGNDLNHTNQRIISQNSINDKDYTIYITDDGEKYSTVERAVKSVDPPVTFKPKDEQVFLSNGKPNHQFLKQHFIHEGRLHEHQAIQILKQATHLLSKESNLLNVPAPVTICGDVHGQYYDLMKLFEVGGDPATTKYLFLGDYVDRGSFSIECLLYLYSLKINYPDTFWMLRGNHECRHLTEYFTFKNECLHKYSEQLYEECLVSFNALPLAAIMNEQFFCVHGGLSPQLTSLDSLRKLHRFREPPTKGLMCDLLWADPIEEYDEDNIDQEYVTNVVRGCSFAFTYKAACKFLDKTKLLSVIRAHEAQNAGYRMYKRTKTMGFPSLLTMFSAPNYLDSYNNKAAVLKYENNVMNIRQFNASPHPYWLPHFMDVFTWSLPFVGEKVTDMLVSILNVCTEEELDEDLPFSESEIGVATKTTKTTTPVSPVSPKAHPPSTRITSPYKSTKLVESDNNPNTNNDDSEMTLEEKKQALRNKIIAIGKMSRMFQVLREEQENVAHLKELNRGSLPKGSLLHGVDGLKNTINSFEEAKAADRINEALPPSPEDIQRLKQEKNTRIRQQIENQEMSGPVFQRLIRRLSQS

[4] = NIH-3T3 fibroblast cytotoxicity, dose response, cytotoxicity control, cell-based, fluorescence, Alamar Blue, secondary assay (AID 2327); format: functional;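 also: NIH-3T3 mouse fibroblasts cultured with fluconazole at 8 µg/mL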
Genome polyprotein = Genome polyprotein (dengue virus type 2, UniProt P29990); test: flavivirus cap methylation enzyme inhibition – biochemical, confirmation dose response, primary screen (AID 588689); format: functional
Genome polyprotein, sequence (P29990 2492-3391 limits assumed): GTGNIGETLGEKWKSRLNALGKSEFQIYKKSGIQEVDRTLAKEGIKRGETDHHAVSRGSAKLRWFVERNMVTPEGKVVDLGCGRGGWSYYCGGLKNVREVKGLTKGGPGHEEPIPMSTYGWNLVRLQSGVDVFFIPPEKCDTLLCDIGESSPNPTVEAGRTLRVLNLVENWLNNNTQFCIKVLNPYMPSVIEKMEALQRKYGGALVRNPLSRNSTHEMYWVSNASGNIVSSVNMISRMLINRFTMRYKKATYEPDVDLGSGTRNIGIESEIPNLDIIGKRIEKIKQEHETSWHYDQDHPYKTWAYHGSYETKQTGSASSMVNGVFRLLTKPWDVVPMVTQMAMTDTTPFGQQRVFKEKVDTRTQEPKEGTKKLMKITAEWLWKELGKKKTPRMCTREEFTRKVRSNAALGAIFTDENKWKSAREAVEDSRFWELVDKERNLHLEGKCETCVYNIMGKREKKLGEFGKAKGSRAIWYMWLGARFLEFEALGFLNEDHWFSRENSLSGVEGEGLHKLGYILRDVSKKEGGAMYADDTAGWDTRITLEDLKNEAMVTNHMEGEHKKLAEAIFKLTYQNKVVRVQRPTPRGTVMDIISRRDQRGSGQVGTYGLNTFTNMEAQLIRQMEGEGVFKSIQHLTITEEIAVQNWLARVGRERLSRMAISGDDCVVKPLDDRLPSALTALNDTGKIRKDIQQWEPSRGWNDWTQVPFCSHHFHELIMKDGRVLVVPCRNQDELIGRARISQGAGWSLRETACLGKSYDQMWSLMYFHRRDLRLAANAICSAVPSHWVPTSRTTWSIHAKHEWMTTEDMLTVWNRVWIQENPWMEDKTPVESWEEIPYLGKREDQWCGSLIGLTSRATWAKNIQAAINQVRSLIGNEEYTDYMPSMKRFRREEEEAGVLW

Vero = test: viability of Vero cells under compound – cytotoxicity control for flavivirus capping enzyme inhibitors (AID 588742); format: functional; conditions: Chlorocebus sabaeus
[5] = test system: Streptococcus sp. 'group A'; test: Streptococcus pyogenes SK(-)GAS viability under kanamycin – luminescence, BacTiterGlo, confirmation, counter-screen for streptokinase expression inhibitor project, dose response (AID 1900); format: functional, organism-based
[6] = target: ATP-dependent molecular chaperone HSP82 (Candida albicans (strain WO-1) (Yeast), UniProt C4YTQ8); test: steroid-induced GRE reporter decrease in yeast – S. cerevisiae, luminescence, Hsp90 inhibitor project, dose response (AID 2400); format: functional, cell-based;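 also: beta-galactosidase luminescence from glucocorticoid response element reporter as proxy for Hsp90 function; inhibitor potency where signal loss means Hsp90 inhibition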
ATP-dependent molecular chaperone HSP82, sequence (C4YTQ8 whole entry): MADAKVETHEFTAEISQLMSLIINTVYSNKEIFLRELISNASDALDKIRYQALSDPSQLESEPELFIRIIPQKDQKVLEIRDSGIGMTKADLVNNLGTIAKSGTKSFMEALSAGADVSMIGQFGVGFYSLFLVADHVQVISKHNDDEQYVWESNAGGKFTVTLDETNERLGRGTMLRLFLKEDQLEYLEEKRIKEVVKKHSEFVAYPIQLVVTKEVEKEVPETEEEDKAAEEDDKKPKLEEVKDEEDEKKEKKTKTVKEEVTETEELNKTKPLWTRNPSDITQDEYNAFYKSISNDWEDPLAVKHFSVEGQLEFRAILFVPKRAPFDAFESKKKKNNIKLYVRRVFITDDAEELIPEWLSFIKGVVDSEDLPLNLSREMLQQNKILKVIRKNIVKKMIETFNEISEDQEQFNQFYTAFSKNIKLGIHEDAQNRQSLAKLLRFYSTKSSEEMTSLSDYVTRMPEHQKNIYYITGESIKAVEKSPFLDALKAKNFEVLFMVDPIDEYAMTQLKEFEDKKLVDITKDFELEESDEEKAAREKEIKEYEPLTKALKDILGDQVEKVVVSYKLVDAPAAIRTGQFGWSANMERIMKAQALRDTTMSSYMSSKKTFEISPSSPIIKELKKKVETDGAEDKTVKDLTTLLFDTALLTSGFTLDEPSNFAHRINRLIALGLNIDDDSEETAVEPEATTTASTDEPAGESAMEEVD

NS3 = NS3 (Hepatitis C virus, UniProt A3EZJ3); test: PubChem AID 2173; design: species or system Hepacivirus hominis
NS3, sequence (A3EZJ3 whole entry): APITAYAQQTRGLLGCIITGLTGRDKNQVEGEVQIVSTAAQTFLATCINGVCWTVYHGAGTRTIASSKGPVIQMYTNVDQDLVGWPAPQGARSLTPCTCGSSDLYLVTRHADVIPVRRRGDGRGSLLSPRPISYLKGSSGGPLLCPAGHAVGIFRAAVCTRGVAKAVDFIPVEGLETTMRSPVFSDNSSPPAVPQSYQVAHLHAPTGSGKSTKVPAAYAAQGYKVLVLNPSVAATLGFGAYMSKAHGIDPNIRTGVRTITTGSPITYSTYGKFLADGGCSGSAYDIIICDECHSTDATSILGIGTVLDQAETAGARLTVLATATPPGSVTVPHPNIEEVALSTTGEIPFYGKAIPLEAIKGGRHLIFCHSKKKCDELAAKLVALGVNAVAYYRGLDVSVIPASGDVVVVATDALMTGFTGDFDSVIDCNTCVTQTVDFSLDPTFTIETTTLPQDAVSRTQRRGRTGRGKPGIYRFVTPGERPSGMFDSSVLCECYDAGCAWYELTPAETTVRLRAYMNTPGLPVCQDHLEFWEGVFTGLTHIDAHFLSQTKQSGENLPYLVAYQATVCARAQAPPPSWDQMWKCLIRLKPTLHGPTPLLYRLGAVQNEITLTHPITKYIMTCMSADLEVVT

[7] = fluconazole-exposed Candida albicans growth modulators – fluorescence, retest, confirmation (AID 2467); format: functional, cell-based
[8] = Luminescence Cell-Based Dose Response HTS to Identify Activators of Luciferase Translation or Activity in H4 […] Cells. [Related pubchem assays: 1829 (Project Summary), 1814 (Primary HTS)]; format: functional
[9] = Luminescence Cell-Based Dose Response to Identify Activators of 5'UTR Stem-Loop Driven Prion Protein mRNA Translation in H4-C Neuroglioblastoma Cells. [Related pubchem assays: 1829 (Project Summary), 1814 (Primary HTS)]; format: functional
HT-1080 = test: HT1080 cell viability loss – fluorescence readout (AID 620); format: functional, cell-based; conditions: Homo sapiens
[10] = Luminescence Cell-Based Dose Confirmation to Identify Activators of 5'UTR Stem-Loop Driven Alpha-Synuclein mRNA Translation in H4 Neuroglioblastoma Cells. [Related pubchem assays: 1829 (Project Summary), 1814 (Primary HTS)]; format: functional
[11] = Luminescence Cell-Based Dose Response to Identify Activators of Luciferase Translation or Activity in H4-C Neuroglioblastoma Cells. [Related pubchem assays: 1829 (Project Summary), 1814 (Primary HTS)]; format: functional
[12] = target: T2, Calpain-2 catalytic subunit (Sus scrofa, UniProt P43367); test: m-calpain protease blockers, concentration series – biochemical, fluorogenic peptide substrate, dose response (AID 1420); format: functional
T2 sequence (P43367 whole entry): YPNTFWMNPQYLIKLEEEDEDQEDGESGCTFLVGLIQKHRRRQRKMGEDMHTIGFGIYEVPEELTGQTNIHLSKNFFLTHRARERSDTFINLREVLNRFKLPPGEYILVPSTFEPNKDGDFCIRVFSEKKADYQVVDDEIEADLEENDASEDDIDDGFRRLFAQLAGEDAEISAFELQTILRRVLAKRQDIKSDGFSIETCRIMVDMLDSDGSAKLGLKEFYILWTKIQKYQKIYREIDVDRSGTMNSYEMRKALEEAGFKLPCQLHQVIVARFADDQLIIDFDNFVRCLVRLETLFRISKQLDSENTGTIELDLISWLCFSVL

[13] = target: Luciferin 4-monooxygenase (Photinus pyralis, UniProt P08659); test: Counter Screen for Luciferase-based Assay Positives. [Related pubchem assays: 620, 618, 411 ]
Luciferin 4-monooxygenase, sequence (P08659 whole entry): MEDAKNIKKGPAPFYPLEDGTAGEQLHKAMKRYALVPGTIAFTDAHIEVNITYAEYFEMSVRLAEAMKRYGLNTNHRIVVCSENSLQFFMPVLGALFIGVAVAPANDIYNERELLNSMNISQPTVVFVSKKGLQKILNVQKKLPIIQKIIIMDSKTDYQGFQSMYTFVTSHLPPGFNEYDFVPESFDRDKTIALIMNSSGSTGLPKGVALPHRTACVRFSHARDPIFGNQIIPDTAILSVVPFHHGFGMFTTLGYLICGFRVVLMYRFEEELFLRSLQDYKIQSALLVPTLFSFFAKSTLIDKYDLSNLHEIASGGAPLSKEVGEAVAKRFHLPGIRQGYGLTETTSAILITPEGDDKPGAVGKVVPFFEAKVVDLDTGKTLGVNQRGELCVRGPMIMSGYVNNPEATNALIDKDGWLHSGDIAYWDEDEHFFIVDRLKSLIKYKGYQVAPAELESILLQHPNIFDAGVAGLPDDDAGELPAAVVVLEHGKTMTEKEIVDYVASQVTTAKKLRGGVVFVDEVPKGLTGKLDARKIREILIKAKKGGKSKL

Prothrombin = Prothrombin (Bos taurus, UniProt P00735); test: thrombin protease inhibitors – biochemical, fluorescence polarization, uHTS hits, dose response (AID 602369); format: functional
[14] = target: 26S proteasome non-ATPase regulatory subunit 14 (Homo sapiens, UniProt O00487); test: inhibition of proteasome subunit RPN11 – biochemical, fluorescence polarization, uHTS hits, confirmation (AID 602368); format: functional
26S proteasome non-ATPase regulatory subunit 14, sequence (O00487 whole entry): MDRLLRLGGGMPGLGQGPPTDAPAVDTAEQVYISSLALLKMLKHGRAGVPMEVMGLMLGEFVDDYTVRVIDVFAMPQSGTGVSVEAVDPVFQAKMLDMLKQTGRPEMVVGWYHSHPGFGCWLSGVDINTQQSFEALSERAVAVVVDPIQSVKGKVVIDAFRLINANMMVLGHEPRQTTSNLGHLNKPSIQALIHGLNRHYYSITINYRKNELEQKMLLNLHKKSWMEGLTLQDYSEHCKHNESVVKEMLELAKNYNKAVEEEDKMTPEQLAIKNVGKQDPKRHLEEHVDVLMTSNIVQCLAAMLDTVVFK

[15] = target: 72 kDa type IV collagenase (Homo sapiens, UniProt P08253); test: Dose Response validation of uHTS RPN11 inhibitor hits using a MMP-2 Fluorescence assay.; format: functional
72 kDa type IV collagenase, sequence (P08253 whole entry): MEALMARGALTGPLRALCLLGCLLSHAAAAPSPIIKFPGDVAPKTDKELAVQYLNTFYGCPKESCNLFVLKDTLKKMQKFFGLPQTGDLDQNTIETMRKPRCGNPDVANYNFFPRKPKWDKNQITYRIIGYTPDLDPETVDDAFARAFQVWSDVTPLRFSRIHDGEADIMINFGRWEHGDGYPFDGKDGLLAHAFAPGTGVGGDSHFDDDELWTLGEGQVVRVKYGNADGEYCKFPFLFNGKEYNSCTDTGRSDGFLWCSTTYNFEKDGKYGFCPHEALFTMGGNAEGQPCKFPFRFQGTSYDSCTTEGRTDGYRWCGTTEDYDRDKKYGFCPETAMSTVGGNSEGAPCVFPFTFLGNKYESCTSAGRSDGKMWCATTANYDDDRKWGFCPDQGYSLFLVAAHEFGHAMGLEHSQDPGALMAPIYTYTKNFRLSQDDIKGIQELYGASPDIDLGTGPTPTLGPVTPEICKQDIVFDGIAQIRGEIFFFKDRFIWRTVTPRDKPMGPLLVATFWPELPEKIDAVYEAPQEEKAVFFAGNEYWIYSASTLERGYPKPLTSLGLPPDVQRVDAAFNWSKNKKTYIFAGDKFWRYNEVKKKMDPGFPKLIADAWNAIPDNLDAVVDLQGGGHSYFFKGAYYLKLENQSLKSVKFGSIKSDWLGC

[16] = mitochondrial function rescue without frataxin homolog – Friedreich's ataxia, plus single-dose screen, dose response (AID 1465); format: functional;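 also: yeast depleted of Yfh1p frataxin homolog grown on glycerol needing respiration; WST-1 tetrazolium dye reduction as measure of cellular dehydrogenase metabolic activity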

Nc1ccc(Cc2nc3cc4ccccc4cc3[nH]2)cc1
CC50 [1]: > 50 µM (active) | IC50 (cells): 15.1 µM (active)

O=C1C=CC(=NNc2ccccc2)C=CC1=O
AC50 [2]: 2.02 µM (active) | EC50 (Streptococcus): 9.57 µM (active) | EC50 [3]: 2.47 µM (active) | EC50 [4]: > 160 µM (inactive) | IC50 (Genome polyprotein): 91.2 µM (active) | CC50 (Vero): 23 µM (active) | EC50 [5]: 2.86 µM (active) | EC50 [6]: 0.887 µM (active) | IC50 (NS3): 12.6 µM (not active) | EC50 [7]: 0.237 µM (active)

O=C(c1cccc(COc2ccc(Cl)cc2Cl)c1)N1CCN(c2ccccn2)CC1
EC50 [8]: < 0.1 µM (inconclusive) | EC50 [9]: 0.275 µM (active) | EC50 (HT-1080): > 50 µM (not active) | EC50 [10]: 0.251 µM (active) | EC50 [11]: 0.242 µM (active) | IC50 [12]: > 50 µM (not active) | EC50 [13]: 46.5 µM (active)

CC(C)NC(=S)N/N=C/c1sc(N2CCCCC2)nc1-c1cccs1
IC50 (Prothrombin): 20.1 µM (active) | IC50 [14]: 9.24 µM (active) | IC50 [15]: 9.6 µM (active) | EC50 [16]: > 100 µM (active)
